Results taken from ChEMBL document CHEMBL1128076, “Synthesis of novel 20-oxo-pregnacalciferol analogs with binding affinity to the progesterone receptor” (1995).

System: T47D
Experiment: Inhibition of breast cancer cell line T47D proliferation
Type: functional, Homo sapiens
Design: concentration or dose not given beside the values

Row | Structure (SMILES) | Inhibition [%]
1 | CC(=O)C1CCC2/C(=C/C=C3CCC(=O)CC3)CCC[C@]12C (stereo partly drawn) | 58
2 | CC(=O)C1CCC2/C(=C/C=C3CCC4(CC3)OCCO4)CCC[C@]12C (stereo partly drawn) | 47
3 | C[C@H](CO)C1CCC2/C(=C/C=C3CCC4(CC3)OCCO4)CCC[C@@]21C (stereo partly drawn) | 40
4 | C[C@H](C=O)C1CCC2/C(=C/C=C3CCC4(CC3)OCCO4)CCC[C@@]21C (stereo partly drawn) | 47
5 | CC(=O)C1CCC2/C(=C/C=C3CCCCC3)CCC[C@]12C (stereo partly drawn) | 24
6 | C[C@H](CO)C1CCC2/C(=C/C=C3CCCCC3)CCC[C@@]21C (stereo partly drawn) | 13
7 | C=C1CC[C@H](O)C/C1=C/C=C1\CCC[C@]2(C)C(C(C)=O)CCC12 (stereo partly drawn) | 59
8 | C[C@H](C=O)C1CCC2/C(=C/C=C3CCCCC3)CCC[C@@]21C (stereo partly drawn) | 36
